This note sets out measurements from patent US7846957B2, “Aromatase inhibition to enhance assisted reproduction” (Ares Trading S.A., priority 2001, dated 2010).

Holding throughout (format): in vivo, human
The subject of experiment [1] is patients who either failed to ovulate or ovulated with an endometrial thickness <5 mm in response to CC. The experiment can be described thus: Letrozole cycles vs CC cycles in patients with inadequate response to CC (Example 2). How it is done: HCG 10,000 IU was given to trigger ovulation. CC was given in a dose of 50-100 mg on days 3-7 or 5-9.
Experiment [2] has as its system PCOS and unexplained infertility undergoing IUI. The experiment can be described thus: Letrozole for Ovulation Induction: Summary (Example 5). An excerpt:
Patient Group: PCOS and unexplained infertility undergoing IUI.
Results: Pregnancy rate was higher with Letrozole VS CC in both kinds of regimen, ovulation rate was higher with Letrozole VS CC in PCOS patients (not reported for unexplained fertility), endometrial thickness was better with Letrozole.

Experiment [3] has as its system infertile patients (3 with PCOS and 4 with unexplained infertility). The experiment can be described thus: Letrozole alone in a single dose, ovarian stimulation and cycle monitoring for IUI (Example 3). As for the experimental part: The estradiol levels in 9 treatment cycles in 7 infertile patients (3 with PCOS and 4 with unexplained infertility) undergoing ovarian stimulation and cycle monitoring for IUI who received a single 20 mg dose of letrozole on day 3 of the cycle. Follicle development was monitored by transvaginal ultrasound and by serum levels of estradiol and LH.

[4] abbreviates: mean, single 20 mg dose on day 3.
Setting [5] is: mean, single 20 mg dose on day 3, listed as letrozole.
Where [6] appears, read: single 20 mg dose on day 3, spread in brackets.

Turning to `CCN(CC)CCOc1ccc(C(=C(Cl)c2ccccc2)c2ccccc2)cc1.O=C(O)CC(O)(CC(=O)O)C(=O)O` [CC], in experiment [1] (Mean), the “Day of hCG administration, Mean” value was determined as 12.6; the “Endometrial Thickness (Cm.), Mean” value is recorded as 0.5 Cm; the “Estradiol (pmol/L) on day of hCG administration, Mean” value was 2145 pmol/L; the “Estradiol per mature follicle (pmol/L), Mean” value is reported as 1278 pmol/L. In experiment [1] (Mean), the “Follicles > 1.5 Cm on day of hCG administration, Mean” value is listed as 1.9; the “LH on day of hCG administration (IU/L), Mean” value was found to be 16 IU/L; the “Number of Days from last letrozole tablet to hCG day, Mean” value was determined as 4.4. For the same compound, in experiment [1] (Median), the “Day of hCG administration, Median” value is 12; the “Endometrial Thickness (Cm.), Median” value came to 0.4 Cm; the “Estradiol (pmol/L) on day of hCG administration, Median” value amounted to 1668 pmol/L; the “Estradiol per mature follicle (pmol/L), Median” value stood at 1486 pmol/L. In addition, in experiment [1] (Median), the “Follicles > 1.5 Cm on day of hCG administration, Median” value is 2; the “LH on day of hCG administration (IU/L), Median” value is listed as 8 IU/L; the “Number of Days from last letrozole tablet to hCG day, Median” value worked out at 4. Further, in experiment [1] (Range), the “Day of hCG administration, Range” value is 11-16; the “Endometrial Thickness (Cm.), Range” value is given as 0.4-0.8 Cm; the “Estradiol (pmol/L) on day of hCG administration, Range” value lay within 362 to 5210 pmol/L; the “Estradiol per mature follicle (pmol/L), Range” value is 177 to 2404 pmol/L. Moreover, in experiment [1] (Range), the “Follicles > 1.5 Cm on day of hCG administration, Range” value is reported as 1-5; the “LH on day of hCG administration (IU/L), Range” value was 3-66 IU/L; the “Number of Days from last letrozole tablet to hCG day, Range” value is reported as 2-7.
As for `N#Cc1ccc(C(c2ccc(C#N)cc2)n2cncn2)cc1` [Letrozole, letrozole], the ovulation rate entry in experiment [2] (Letrozole VS CC in PCOS patients) is recorded as “higher”. In experiment [2] (Letrozole VS CC in both kinds of regimen (alone in PCOS; plus FSH in unexplained infertility)), the Pregnancy rate entry is on record as “higher”. For the same compound, the endometrial thickness entry in experiment [2] (Letrozole vs CC) is on record as “better”. For the same compound, in experiment [3] (7 patients, 9 treatment cycles, single 20 mg dose), the “Pregnancy was achieved (patients)” value is recorded as “one”. In experiment [3] (setting [4]), the “Estradiol on hCG day (pmol/L)” value was 831 (359) pmol/L and the “Estradiol/mature follicle (pmol/L)” value was 390 (74) pmol/L. Moreover, in experiment [3] (setting [5]), the “Estradiol on hCG day” value is listed as 831 pmol/L and the “Estradiol/mature follicle” value was determined as 390 pmol/L. Also, in experiment [3] (setting [6]), the “Endometrial thickness on hCG day (cm)” value is 0.9 (0.11) cm, the “Follicles > 1.5 cm” value is recorded as 2.29 (1.3) and the “LH (IU/L)” value is 19.1 (12.7) IU/L.
